Results as given in patent publication US20100267561A1, “HERBICIDAL PYRIDAZINONE DERIVATIVES” (priority 2007, published 2010).

Tests used:
Format in all cases: in vivo
[1] = tested on: common (oilseed) sunflower (Helianthus annuus); experiment: Test B pre-/postemergence plant response; settings: Preemergence; for Sunflower plant response rating: scale 0 to 100
In short: (§1)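 Visual scoring from 0 (no effect) to 100 (complete control) against untreated controls was done 13 to 15 days after greenhouse treatment. Chemicals were formulated in a surfactant-containing non-phytotoxic solvent and applied to soil preemergence or to 1- to 4-leaf (2-18 cm) plants postemergence.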

corn (Zea mays) = experiment: Test B pre-/postemergence plant response
In short: as §1

[2] = tested on: downy bromegrass (Bromus tectorum); experiment: Test B pre-/postemergence plant response; settings: for Bromegrass, Downy plant response rating: 8 g ai/ha
In short: as §1

[3] = tested on: green foxtail (Setaria viridis); experiment: Test B pre-/postemergence plant response
In short: as §1

[4] = tested on: large crabgrass (Digitaria sanguinalis); experiment: Test B pre-/postemergence plant response
In short: as §1

[5] = tested on: morningglory (Ipomoea coccinea); experiment: Test B pre-/postemergence plant response
In short: as §1

[6] = tested on: surinam grass (Brachiaria decumbens); experiment: Test B pre-/postemergence plant response
In short: as §1

[7] = tested on: velvetleaf (Abutilon theophrasti); experiment: Test B pre-/postemergence plant response
In short: as §1

[8] = tested on: wheat (Triticum aestivum); experiment: Test B pre-/postemergence plant response
In short: as §1

wild oat (Avena fatua) = experiment: Test B pre-/postemergence plant response
In short: as §1

[9] = tested on: barnyardgrass (Echinochloa crus-galli); experiment: Test B flooded paddy test plant response
In short: (§2)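 2-leaf plants; pots flooded 3 cm above soil; compound added to paddy water; depth maintained. Greenhouse 13–15 d. Visual rating vs controls, 0 (no effect) to 100 (complete control); dash = no result.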

[10] = tested on: ducksalad (Heteranthera limosa); experiment: Test B flooded paddy test plant response
In short: as §2

rice (Oryza sativa) = experiment: Test B flooded paddy test plant response
In short: as §2

[11] = tested on: umbrella sedge (Cyperus difformis); experiment: Test B flooded paddy test plant response
In short: as §2

[12] = 8 g ai/ha, postemergence, 0-100 scale
[13] = Postemergence, 16 g ai/ha, scale 0 to 100
[14] = Postemergence, 31 g ai/ha, scale 0 to 100
[15] = Postemergence, 62 g ai/ha, scale 0 to 100, 0 no effect, 100 complete control
[16] = Preemergence, 31 g ai/ha, scale 0 to 100 (0 no effect, 100 complete control)
[17] = Preemergence, 62 g ai/ha, 0 to 100 scale, 0 no effect, 100 complete control
[18] = Preemergence, 8 g ai/ha, scale 0 to 100
[19] = Preemergence, 16 g ai/ha, scale 0 to 100
[20] = 16 g ai/ha, postemergence, 0-100 scale
[21] = Flood (flooded paddy test), 62 g ai/ha, scale 0 to 100, 0 no effect, 100 complete control
[22] = Flood (flooded paddy test), 125 g ai/ha, scale 0 to 100, 0 no effect, 100 complete control
[23] = Flood (flooded paddy test), 250 g ai/ha, scale 0 to 100, 0 no effect, 100 complete control
[24] = Flood, 31 g ai/ha, scale 0 to 100

Cc1cc(-c2ccc(Cl)cc2)nn1-c1c(OC(=S)N(C)C)cnn(C)c1=O [Compound 69]
Plant response rating, Sunflower ([1]; 31 g ai/ha, scale 0 to 100 (0 no effect, 100 complete control)): 0
Plant response rating, Sunflower ([1]; 62 g ai/ha, 0 to 100 scale, 0 no effect, 100 complete control): 0
Sunflower plant response rating ([1]; 8 g ai/ha): 0
Sunflower plant response rating ([1]; 16 g ai/ha): 0
Corn plant response rating (corn (Zea mays); [12]): 0
Plant response rating, Corn (corn (Zea mays); [13]): 0
Plant response rating, Corn (corn (Zea mays); [14]): 0
Plant response rating, Corn (corn (Zea mays); [15]): 20
Plant response rating, Corn (corn (Zea mays); [16]): 0
Plant response rating, Corn (corn (Zea mays); [17]): 0
Corn plant response rating (corn (Zea mays); [18]): 0
Corn plant response rating (corn (Zea mays); [19]): 0
Bromegrass, Downy plant response rating ([2]; postemergence, 0-100 scale): 0
Plant response rating, Bromegrass, Downy [2, 13]: 0
Plant response rating, Bromegrass, Downy [2, 14]: 15
Plant response rating, Bromegrass, Downy [2, 15]: 45
Plant response rating, Bromegrass, Downy ([2]; Preemergence, 16 g ai/ha, scale 0 to 100 (0 no effect, 100 complete control)): 0
Plant response rating, Bromegrass, Downy [2, 16]: 0
Plant response rating, Bromegrass, Downy [2, 17]: 0
Bromegrass, Downy plant response rating ([2]; Preemergence, scale 0 to 100): 0
Foxtail, Green plant response rating [3, 12]: 60
Plant response rating, Foxtail, Green [3, 13]: 80
Plant response rating, Foxtail, Green [3, 14]: 90
Plant response rating, Foxtail, Green [3, 15]: 95
Plant response rating, Foxtail, Green [3, 16]: 40
Plant response rating, Foxtail, Green [3, 17]: 100
Foxtail, Green plant response rating [3, 18]: 0
Foxtail, Green plant response rating [3, 19]: 0
Crabgrass, Large plant response rating [4, 12]: 55
Plant response rating, Crabgrass, Large [4, 13]: 75
Plant response rating, Crabgrass, Large [4, 14]: 98
Plant response rating, Crabgrass, Large [4, 15]: 100
Plant response rating, Crabgrass, Large [4, 16]: 0
Plant response rating, Crabgrass, Large [4, 17]: 0
Crabgrass, Large plant response rating [4, 18]: 0
Crabgrass, Large plant response rating [4, 19]: 0
Morningglory plant response rating [5, 12]: 0
Morningglory plant response rating [5, 20]: 0
Plant response rating, Morningglory [5, 14]: 0
Plant response rating, Morningglory [5, 15]: 0
Plant response rating, Morningglory [5, 16]: 0
Plant response rating, Morningglory [5, 17]: 0
Morningglory plant response rating [5, 18]: 0
Morningglory plant response rating [5, 19]: 0
Surinam Grass plant response rating [6, 12]: 65
Surinam Grass plant response rating [6, 20]: 75
Plant response rating, Surinam Grass [6, 14]: 80
Plant response rating, Surinam Grass [6, 15]: 95
Plant response rating, Surinam Grass [6, 16]: 15
Plant response rating, Surinam Grass [6, 17]: 35
Surinam Grass plant response rating [6, 18]: 0
Surinam Grass plant response rating [6, 19]: 0
Velvetleaf plant response rating [7, 12]: 0
Velvetleaf plant response rating [7, 20]: 0
Plant response rating, Velvetleaf [7, 14]: 0
Plant response rating, Velvetleaf [7, 15]: 0
Plant response rating, Velvetleaf [7, 16]: 0
Plant response rating, Velvetleaf [7, 17]: 0
Velvetleaf plant response rating [7, 18]: 0
Velvetleaf plant response rating [7, 19]: 0
Wheat plant response rating [8, 12]: 0
Wheat plant response rating [8, 20]: 35
Plant response rating, Wheat [8, 14]: 40
Plant response rating, Wheat [8, 15]: 80
Plant response rating, Wheat [8, 16]: 0
Plant response rating, Wheat [8, 17]: 0
Wheat plant response rating [8, 19]: 0
Oat, Wild plant response rating (wild oat (Avena fatua); [12]): 20
Oat, Wild plant response rating (wild oat (Avena fatua); [20]): 40
Plant response rating, Oat, Wild (wild oat (Avena fatua); [14]): 90
Plant response rating, Oat, Wild (wild oat (Avena fatua); [15]): 90
Plant response rating, Oat, Wild (wild oat (Avena fatua); [16]): 20
Plant response rating, Oat, Wild (wild oat (Avena fatua); [17]): 40
Oat, Wild plant response rating (wild oat (Avena fatua); [18]): 0
Oat, Wild plant response rating (wild oat (Avena fatua); [19]): 0
Plant response rating, Barnyardgrass [9, 21]: 0
Plant response rating, Barnyardgrass [9, 22]: 0
Plant response rating, Barnyardgrass [9, 23]: 0
Plant response rating, Barnyardgrass [9, 24]: 0
Plant response rating, Ducksalad [10, 21]: 0
Plant response rating, Ducksalad [10, 22]: 0
Plant response rating, Ducksalad [10, 23]: 0
Plant response rating, Ducksalad [10, 24]: 0
Plant response rating, Rice (rice (Oryza sativa); [21]): 0
Plant response rating, Rice (rice (Oryza sativa); [22]): 0
Plant response rating, Rice (rice (Oryza sativa); [23]): 0
Plant response rating, Rice (rice (Oryza sativa); [24]): 0
Plant response rating, Sedge, Umbrella [11, 21]: 0
Plant response rating, Sedge, Umbrella [11, 22]: 0
Plant response rating, Sedge, Umbrella [11, 23]: 0
Plant response rating, Sedge, Umbrella [11, 24]: 0
